According to ChEMBL document CHEMBL3046329, “Sensitivity to silthiofam, tebuconazole and difenoconazole of Gaeumannomyces graminis var. tritici isolates from China” (Pest Manag Sci, 2012):
≈ marks a conversion by molar mass, not a printed value.

Columns and labels:
Assay type in all cases: functional, organism-based
Gaeumannomyces tritici [1] = assay: Antifungal activity against sithiofam-sensitive Gaeumannomyces graminis var. tritici isolate JS08 expressing C2 genetic cluster assessed as reduction in fungal colony diameter after 4 days; conditions: isolate JS08, 96 h
Gaeumannomyces tritici [2] = assay: Antifungal activity against sithiofam-resistant Gaeumannomyces graminis var. tritici isolate JS07 expressing C1 genetic cluster assessed as reduction in fungal colony diameter after 4 days; conditions: isolate JS07, 96 h
Gaeumannomyces tritici [3] = assay: Antifungal activity against sithiofam-resistant Gaeumannomyces graminis var. tritici isolate JS05 expressing C1 genetic cluster assessed as reduction in fungal colony diameter after 4 days; conditions: isolate JS05, 96 h
Gaeumannomyces tritici [4] = assay: Antifungal activity against sithiofam-sensitive Gaeumannomyces graminis var. tritici isolate JS02 expressing C1 genetic cluster assessed as reduction in fungal colony diameter after 4 days; conditions: isolate JS02, 96 h
Gaeumannomyces tritici [5] = assay: Antifungal activity against sithiofam-resistant Gaeumannomyces graminis var. tritici isolate JS11 expressing C1 genetic cluster assessed as reduction in fungal colony diameter after 4 days; conditions: isolate JS11, 96 h
Gaeumannomyces tritici [6] = assay: Antifungal activity against sithiofam-resistant Gaeumannomyces graminis var. tritici isolate JS09 expressing C1 genetic cluster assessed as reduction in fungal colony diameter after 4 days; conditions: isolate JS09, 96 h
Gaeumannomyces tritici [7] = assay: Antifungal activity against sithiofam-sensitive Gaeumannomyces graminis var. tritici isolate HN21 expressing C2 genetic cluster assessed as reduction in fungal colony diameter after 4 days; conditions: isolate HN21, 96 h
Gaeumannomyces tritici [8] = assay: Antifungal activity against sithiofam-resistant Gaeumannomyces graminis var. tritici isolate HN20 expressing C1 genetic cluster assessed as reduction in fungal colony diameter after 4 days; conditions: isolate HN20, 96 h
Gaeumannomyces tritici [9] = assay: Antifungal activity against sithiofam-sensitive Gaeumannomyces graminis var. tritici isolate HN19 expressing C2 genetic cluster assessed as reduction in fungal colony diameter after 4 days; conditions: isolate HN19, 96 h
Gaeumannomyces tritici [10] = assay: Antifungal activity against sithiofam-sensitive Gaeumannomyces graminis var. tritici isolate HN18 expressing C2 genetic cluster assessed as reduction in fungal colony diameter after 4 days; conditions: isolate HN18, 96 h
Gaeumannomyces tritici [11] = assay: Antifungal activity against sithiofam-sensitive Gaeumannomyces graminis var. tritici isolate HN26 expressing C2 genetic cluster assessed as reduction in fungal colony diameter after 4 days; conditions: isolate HN26, 96 h
Gaeumannomyces tritici [12] = assay: Antifungal activity against sithiofam-resistant Gaeumannomyces graminis var. tritici isolate HN13 expressing C1 genetic cluster assessed as reduction in fungal colony diameter after 4 days; conditions: isolate HN13, 96 h
Gaeumannomyces tritici [13] = assay: Antifungal activity against sithiofam-resistant Gaeumannomyces graminis var. tritici isolate HN12 expressing C1 genetic cluster assessed as reduction in fungal colony diameter after 4 days; conditions: isolate HN12, HN12, 96 h
Gaeumannomyces tritici [14] = assay: Antifungal activity against sithiofam-sensitive Gaeumannomyces graminis var. tritici isolate HN11 expressing C2 genetic cluster assessed as reduction in fungal colony diameter after 4 days; conditions: isolate HN11, HN11, 96 h
Gaeumannomyces tritici [15] = assay: Antifungal activity against sithiofam-resistant Gaeumannomyces graminis var. tritici isolate HN10 expressing C1 genetic cluster assessed as reduction in fungal colony diameter after 4 days; conditions: isolate HN10, 96 h
Gaeumannomyces tritici [16] = assay: Antifungal activity against sithiofam-resistant Gaeumannomyces graminis var. tritici isolate HN05 expressing C1 genetic cluster assessed as reduction in fungal colony diameter after 4 days; conditions: isolate HN05, 96 h
Gaeumannomyces tritici [17] = assay: Antifungal activity against sithiofam-resistant Gaeumannomyces graminis var. tritici isolate HN04 expressing C1 genetic cluster assessed as reduction in fungal colony diameter after 4 days; conditions: isolate HN04, 96 h
Gaeumannomyces tritici [18] = assay: Antifungal activity against sithiofam-resistant Gaeumannomyces graminis var. tritici isolate HN02 expressing C1 genetic cluster assessed as reduction in fungal colony diameter after 4 days; conditions: isolate HN02, 96 h
Gaeumannomyces tritici [19] = assay: Antifungal activity against sithiofam-resistant Gaeumannomyces graminis var. tritici isolate HN01 expressing C1 genetic cluster assessed as reduction in fungal colony diameter after 4 days; conditions: isolate HN01, 96 h
Gaeumannomyces tritici [20] = assay: Antifungal activity against sithiofam-sensitive Gaeumannomyces graminis var. tritici isolate AH08 expressing C2 genetic cluster assessed as reduction in fungal colony diameter after 4 days; conditions: isolate AH08, 96 h
Gaeumannomyces tritici [21] = assay: Antifungal activity against sithiofam-sensitive Gaeumannomyces graminis var. tritici isolate HN17 expressing C2 genetic cluster assessed as reduction in fungal colony diameter after 4 days; conditions: isolate HN17, 96 h
Gaeumannomyces tritici [22] = assay: Antifungal activity against sithiofam-resistant Gaeumannomyces graminis var. tritici isolate HN16 expressing C1 genetic cluster assessed as reduction in fungal colony diameter after 4 days; conditions: isolate HN16, 96 h
Gaeumannomyces tritici [23] = assay: Antifungal activity against sithiofam-sensitive Gaeumannomyces graminis var. tritici isolate HN15 expressing C2 genetic cluster assessed as reduction in fungal colony diameter after 4 days; conditions: isolate HN15, 96 h
Gaeumannomyces tritici [24] = assay: Antifungal activity against sithiofam-sensitive Gaeumannomyces graminis var. tritici isolate JS01 expressing C1 genetic cluster assessed as reduction in fungal colony diameter after 4 days; conditions: isolate JS01, 96 h
Gaeumannomyces tritici [25] = assay: Antifungal activity against sithiofam-sensitive Gaeumannomyces graminis var. tritici isolate AH16 expressing C2 genetic cluster assessed as reduction in fungal colony diameter after 4 days; conditions: isolate AH16, 96 h
Gaeumannomyces tritici [26] = assay: Antifungal activity against sithiofam-sensitive Gaeumannomyces graminis var. tritici isolate AH07 expressing C2 genetic cluster assessed as reduction in fungal colony diameter after 4 days; conditions: isolate AH07, 96 h
Gaeumannomyces tritici [27] = assay: Antifungal activity against sithiofam-sensitive Gaeumannomyces graminis var. tritici isolate AH05 expressing C2 genetic cluster assessed as reduction in fungal colony diameter after 4 days; conditions: isolate AH05, 96 h
Gaeumannomyces tritici [28] = assay: Antifungal activity against sithiofam-resistant Gaeumannomyces graminis var. tritici isolate AH02 expressing C1 genetic cluster assessed as reduction in fungal colony diameter after 4 days; conditions: isolate AH02, 96 h
Gaeumannomyces tritici [29] = assay: Antifungal activity against sithiofam-sensitive Gaeumannomyces graminis var. tritici isolate SD06 expressing C2 genetic cluster assessed as reduction in fungal colony diameter after 4 days; conditions: isolate SD06, 96 h
Gaeumannomyces tritici [30] = assay: Antifungal activity against sithiofam-sensitive Gaeumannomyces graminis var. tritici isolate SD05 expressing C2 genetic cluster assessed as reduction in fungal colony diameter after 4 days; conditions: isolate SD05, 96 h
Gaeumannomyces tritici [31] = assay: Antifungal activity against sithiofam-sensitive Gaeumannomyces graminis var. tritici isolate SD03 expressing C2 genetic cluster assessed as reduction in fungal colony diameter after 4 days; conditions: isolate SD03, 96 h
Gaeumannomyces tritici [32] = assay: Antifungal activity against sithiofam-sensitive Gaeumannomyces graminis var. tritici isolate SD02 expressing C2 genetic cluster assessed as reduction in fungal colony diameter after 4 days; conditions: isolate SD02, 96 h
Gaeumannomyces tritici [33] = assay: Antifungal activity against sithiofam-resistant Gaeumannomyces graminis var. tritici isolate AH14 expressing C1 genetic cluster assessed as reduction in fungal colony diameter after 4 days; conditions: isolate AH14, 96 h
Gaeumannomyces tritici [34] = assay: Antifungal activity against sithiofam-resistant Gaeumannomyces graminis var. tritici isolate AH13 expressing C1 genetic cluster assessed as reduction in fungal colony diameter after 4 days; conditions: isolate AH13, 96 h
Gaeumannomyces tritici [35] = assay: Antifungal activity against sithiofam-resistant Gaeumannomyces graminis var. tritici isolate AH10 expressing C1 genetic cluster assessed as reduction in fungal colony diameter after 4 days; conditions: isolate AH10, 96 h
Gaeumannomyces tritici [36] = assay: Antifungal activity against sithiofam-sensitive Gaeumannomyces graminis var. tritici isolate SD01 expressing C2 genetic cluster assessed as reduction in fungal colony diameter after 4 days; conditions: isolate SD01, 96 h
Gaeumannomyces tritici [37] = assay: Antifungal activity against sithiofam-sensitive Gaeumannomyces graminis var. tritici isolate HN32 expressing C2 genetic cluster assessed as reduction in fungal colony diameter after 4 days; conditions: isolate HN32, 96 h

## C=CCNC(=O)c1c([Si](C)(C)C)sc(C)c1C [SILTHIOFAM]
Gaeumannomyces tritici [1]
  EC50: 0.2 ng/mL (≈ 0.000748 µM)
Gaeumannomyces tritici [2]
  EC50: 24700 ng/mL (≈ 92.2 µM)
Gaeumannomyces tritici [3]
  EC50: 24700 ng/mL (≈ 92.2 µM)
Gaeumannomyces tritici [4]
  EC50: 1.3 ng/mL (≈ 0.00486 µM)
Gaeumannomyces tritici [5]
  EC50: 46800 ng/mL (≈ 175 µM)
Gaeumannomyces tritici [6]
  EC50: 34200 ng/mL (≈ 128 µM)
Gaeumannomyces tritici [7]
  EC50: 0.5 ng/mL (≈ 0.00187 µM)
Gaeumannomyces tritici [8]
  EC50: 24800 ng/mL (≈ 92.7 µM)
Gaeumannomyces tritici [9]
  EC50: 0.1 ng/mL (≈ 0.000374 µM)
Gaeumannomyces tritici [10]
  EC50: 0.5 ng/mL (≈ 0.00187 µM)
Gaeumannomyces tritici [11]
  EC50: 1.8 ng/mL (≈ 0.00673 µM)
Gaeumannomyces tritici [12]
  EC50: 51800 ng/mL (≈ 194 µM)
Gaeumannomyces tritici [13]
  EC50: 53000 ng/mL (≈ 198 µM)
Gaeumannomyces tritici [14]
  EC50: 0.7 ng/mL (≈ 0.00262 µM)
Gaeumannomyces tritici [15]
  EC50: 30200 ng/mL (≈ 113 µM)
Gaeumannomyces tritici [16]
  EC50: 23800 ng/mL (≈ 89.1 µM)
Gaeumannomyces tritici [17]
  EC50: 31900 ng/mL (≈ 119 µM)
Gaeumannomyces tritici [18]
  EC50: 88100 ng/mL (≈ 329 µM)
Gaeumannomyces tritici [19]
  EC50: 82700 ng/mL (≈ 309 µM)
Gaeumannomyces tritici [20]
  EC50: 1.3 ng/mL (≈ 0.00486 µM)
Gaeumannomyces tritici [21]
  EC50: 1 ng/mL (≈ 0.00374 µM)
Gaeumannomyces tritici [22]
  EC50: 28600 ng/mL (≈ 107 µM)
Gaeumannomyces tritici [23]
  EC50: 1.1 ng/mL (≈ 0.00411 µM)
Gaeumannomyces tritici [24]
  EC50: 0.2 ng/mL (≈ 0.000748 µM)
Gaeumannomyces tritici [25]
  EC50: 0.3 ng/mL (≈ 0.00112 µM)
Gaeumannomyces tritici [26]
  EC50: 0.6 ng/mL (≈ 0.00224 µM)
Gaeumannomyces tritici [27]
  EC50: 1.3 ng/mL (≈ 0.00486 µM)
Gaeumannomyces tritici [28]
  EC50: 51800 ng/mL (≈ 194 µM)
Gaeumannomyces tritici [29]
  EC50: 1.2 ng/mL (≈ 0.00449 µM)
Gaeumannomyces tritici [30]
  EC50: 0.7 ng/mL (≈ 0.00262 µM)
Gaeumannomyces tritici [31]
  EC50: 0.9 ng/mL (≈ 0.00336 µM)
Gaeumannomyces tritici [32]
  EC50: 3.6 ng/mL (≈ 0.0135 µM)
Gaeumannomyces tritici [33]
  EC50: 39900 ng/mL (≈ 149 µM)
Gaeumannomyces tritici [34]
  EC50: 70200 ng/mL (≈ 263 µM)
Gaeumannomyces tritici [35]
  EC50: 57600 ng/mL (≈ 215 µM)
Gaeumannomyces tritici [36]
  EC50: 0.8 ng/mL (≈ 0.00299 µM)
Gaeumannomyces tritici [37]
  EC50: 0.4 ng/mL (≈ 0.0015 µM)

## CC(C)(C)C(O)(CCc1ccc(Cl)cc1)Cn1cncn1 (centres undefined) [TEBUCONAZOLE]
Gaeumannomyces tritici [1]
  EC50: 51 ng/mL (≈ 0.166 µM)
Gaeumannomyces tritici [2]
  EC50: 58.4 ng/mL (≈ 0.19 µM)
Gaeumannomyces tritici [3]
  EC50: 57.5 ng/mL (≈ 0.187 µM)
Gaeumannomyces tritici [4]
  EC50: 54.7 ng/mL (≈ 0.178 µM)
Gaeumannomyces tritici [5]
  EC50: 43.7 ng/mL (≈ 0.142 µM)
Gaeumannomyces tritici [6]
  EC50: 29.8 ng/mL (≈ 0.0968 µM)
Gaeumannomyces tritici [7]
  EC50: 60.9 ng/mL (≈ 0.198 µM)
Gaeumannomyces tritici [8]
  EC50: 104 ng/mL (≈ 0.338 µM)
Gaeumannomyces tritici [9]
  EC50: 47.8 ng/mL (≈ 0.155 µM)
Gaeumannomyces tritici [10]
  EC50: 72.7 ng/mL (≈ 0.236 µM)
Gaeumannomyces tritici [11]
  EC50: 72.2 ng/mL (≈ 0.235 µM)
Gaeumannomyces tritici [12]
  EC50: 68.9 ng/mL (≈ 0.224 µM)
Gaeumannomyces tritici [13]
  EC50: 76 ng/mL (≈ 0.247 µM)
Gaeumannomyces tritici [14]
  EC50: 56.2 ng/mL (≈ 0.183 µM)
Gaeumannomyces tritici [15]
  EC50: 69.1 ng/mL (≈ 0.224 µM)
Gaeumannomyces tritici [16]
  EC50: 49.8 ng/mL (≈ 0.162 µM)
Gaeumannomyces tritici [17]
  EC50: 56 ng/mL (≈ 0.182 µM)
Gaeumannomyces tritici [18]
  EC50: 36.4 ng/mL (≈ 0.118 µM)
Gaeumannomyces tritici [19]
  EC50: 19.8 ng/mL (≈ 0.0643 µM)
Gaeumannomyces tritici [20]
  EC50: 48.9 ng/mL (≈ 0.159 µM)
Gaeumannomyces tritici [21]
  EC50: 39.8 ng/mL (≈ 0.129 µM)
Gaeumannomyces tritici [22]
  EC50: 59.9 ng/mL (≈ 0.195 µM)
Gaeumannomyces tritici [23]
  EC50: 51.6 ng/mL (≈ 0.168 µM)
Gaeumannomyces tritici [24]
  EC50: 32.5 ng/mL (≈ 0.106 µM)
Gaeumannomyces tritici [25]
  EC50: 96.5 ng/mL (≈ 0.313 µM)
Gaeumannomyces tritici [26]
  EC50: 64.7 ng/mL (≈ 0.21 µM)
Gaeumannomyces tritici [27]
  EC50: 90.2 ng/mL (≈ 0.293 µM)
Gaeumannomyces tritici [28]
  EC50: 99.9 ng/mL (≈ 0.325 µM)
Gaeumannomyces tritici [29]
  EC50: 64.6 ng/mL (≈ 0.21 µM)
Gaeumannomyces tritici [30]
  EC50: 68.8 ng/mL (≈ 0.224 µM)
Gaeumannomyces tritici [31]
  EC50: 98.3 ng/mL (≈ 0.319 µM)
Gaeumannomyces tritici [32]
  EC50: 57.5 ng/mL (≈ 0.187 µM)
Gaeumannomyces tritici [33]
  EC50: 26.5 ng/mL (≈ 0.0861 µM)
Gaeumannomyces tritici [34]
  EC50: 302 ng/mL (≈ 0.981 µM)
Gaeumannomyces tritici [35]
  EC50: 112 ng/mL (≈ 0.363 µM)
Gaeumannomyces tritici [36]
  EC50: 176 ng/mL (≈ 0.573 µM)
Gaeumannomyces tritici [37]
  EC50: 238 ng/mL (≈ 0.772 µM)
